Non-standard residues stand in square brackets, D forms with d. Residues, ends and D or L forms follow the SMILES beside them. *: point of attachment. Dolaproine = CO[C@@H]([C@@H]1CCCN1)[C@@H](C)C(=O)O; Dil = CC[C@H](C)[C@H](NC)[C@@H](CC(=O)O)OC; X1 = C[C@@H](N*)[C@@H](O)c1ccccc1; NMeV = CN[C@H](C(=O)O)C(C)C
Key:
Format in all cases: cell-based
[1] = test system: KMS-27, NCI-H929 and KMS-21-BM cancer cell lines; assay: Internalization and cell proliferation assay, statements across the three cancer cell lines; settings: range across the three cell lines; dosed directly, 5 days, CellTiter-Glo
Procedure: (§1) The internalization activity of CD48 antibodies were tested against three endogenous cancer cell lines: KMS-27: JCRB No. JCRB1188 cultured in RPMI-1640+10% FBS; NCI-H929: ATCC No. CRL-9068 cultured in RPMI-1640+10% FBS+0.05 mM 2-mercaptoethanol; and KMS-21-BM: JCRB No. JCRB1185 cultured in RPMI-1640+10% FBS.
CD48 antibodies were synthesized and expressed generally as described in Example 5. Cell lines were cultured in media that is optimal for their growth at 5% CO2, 37° C. in a tissue culture incubator. Prior to seeding for the proliferation assay, the cells were split at least 2 days before the assay to ensure optimal growth density. On the day of seeding, cell viability and cell density were determined using a cell counter (Vi-Cell XR Cell Viability Analyzer, Beckman Coulter). Cells with higher than 85% viability were seeded in white clear bottom 384-well TC treated plates (Corning cat. #3765). […] Plates were incubated at 5% CO2, 37° C. for 5 days in a tissue culture incubator, after which cell viability was assessed through the addition of 25 μL of CellTiter Glo® (Promega, cat #G7573), a reagent which lyses cells and measures total adenosine triphosphate (ATP) content. Plates were incubated at room temperature for 10 minutes to stabilize luminescent signals prior to reading using a luminescence reader (EnVision Multilabel Plate Reader, PerkinElmer). […]

[2] = test system: KMS-21-BM; assay: Internalization and cell proliferation assay (CellTiter-Glo, with secondary anti-human Fc-VC-MMAE ADC)
Procedure: as §1
(§2) CD48 antibodies were synthesized and expressed generally as described in Example 5. Cell lines were cultured in media that is optimal for their growth at 5% CO2, 37° C. in a tissue culture incubator. Prior to seeding for the proliferation assay, the cells were split at least 2 days before the assay to ensure optimal growth density. On the day of seeding, cell viability and cell density were determined using a cell counter (Vi-Cell XR Cell Viability Analyzer, Beckman Coulter). Cells with higher than 85% viability were seeded in white clear bottom 384-well TC treated plates (Corning cat. #3765). Cells were seeded at a density of 1,000 cells per well in 40 μL of standard growth media. Plates were incubated at 5% CO2, 37° C. overnight in a tissue culture incubator. The next day free MMAE payload, a CD48A-CysMab-VC-MMAE ADC (synthesis described in Example 5), CD48 antibodies, and a non-targeting isotype antibody were prepared at 10× in standard growth media. The MMAE free payload and CD48A-CysMab-VC-MMAE ADC were added to the cells resulting in final concentrations of 0.007-150 nM and a final volume of 50 μL per well. The prepared antibody treatments, including CD48 IgGs and a non-targeting isotype antibody, were then added to the cells resulting in final concentrations of 0.001-20 nM and a final volume of 45 μL per well. An anti-human Fc-VC-MMAE ADC (DAR2.0) was prepared at 10× in standard growth media. The prepared ADC was then added to the cells resulting in a final concentration of 60 nM and a final volume of 50 μL per well. Each drug concentration was tested in quadruplets. Plates were incubated at 5% CO2, 37° C. for 5 days in a tissue culture incubator, after which cell viability was assessed through the addition of 25 μL of CellTiter Glo® (Promega, cat #G7573), a reagent which lyses cells and measures total adenosine triphosphate (ATP) content. Plates were incubated at room temperature for 10 minutes to stabilize luminescent signals prior to reading using a luminescence reader (EnVision Multilabel Plate Reader, PerkinElmer). To evaluate the effect of the drug treatments, luminescent counts from wells containing untreated cells (100% viability) were used to normalize treated samples. A variable slope model was applied to fit a nonlinear regression curve to the data in GraphPad PRISM version 7.02 software. IC50 and Amax values were extrapolated from the resultant curves.
(§3) The dose response curves of representative cancer cell lines are shown in FIG. 2A (KMS-27), FIG. 2B (NCI-H929), and FIG. 2C (KMS-21-BM).

[3] = test system: KMS-27; assay: as above; settings: KMS-27, CellTiter-Glo
Procedure: as §1, §2, §3

[4] = test system: NCI-H929; assay: as above
Procedure: as §1, §2, §3

With `CC[C@H](C)[C@@H]([C@@H](CC(=O)N1CCC[C@H]1[C@H](OC)[C@@H](C)C(=O)N[C@H](C)[C@@H](O)c1ccccc1)OC)N(C)C(=O)[C@@H](NC(=O)[C@@H](NC)C(C)C)C(C)C` [MMAE] (H-[NMeV]V[Dil][Dolaproine]-X1) the IC50 [1] was 0.021 to 0.116 nM, the IC50 [2] was 0.024 nM and the “Span (Amax)” value [2] was 72.9. The IC50 [3] was 0.021 nM, the “Span (Amax)” value [3] was 83.9 and the IC50 [4] was 0.116 nM. The “Span (Amax)” value [4] was 88.5.
